According to patent US9403840B2, “(Poly) aminoacetamide derivatives of epipodophyllotoxin their process of preparation and their applications in therapeutics as anticancer agents” (PIERRE FABRE MEDICAMENT, priority 2004, dated 2016):
In brackets after ≈: the same amount, converted by molar mass. Several values for one entry are separate records, joined by “and”; a condition that tells them apart may be missing. Equal entries are not always repeated. Structures can show the parent of a compound that is named as a salt.

Legend:
P388 murine leukaemia = experiment: P388 experimental tumour model (survival); format: in vivo, mouse; conditions: CD2F1 mice, P388 i.v. day 0, single intraperitoneal injection day 1; optimum dose (mg/kg) in brackets
Experimental: (§1) The model used is P388 murine leukaemia (Tumor Models in Cancer Research., Teicher, B. A. ed., Humana Press Inc., Totowa, N.J., pp. 23-40, 2002), which is maintained by successive intraperitoneal transplantations in DBA/2 mice (DBA/2JIco, Charles River), as was described in prior art documents (Classic in vivo cancer models: Three examples of mouse models used in experimental therapeutics. Current Protocols in Pharmacology Unit 5.24: 5.24.1-5.24.16, 2001).
The experiment is carried out according to a protocol already described in prior art documents (Cancer Chemother. Pharmacol., 1998, 41, 437-447). This consists in implanting 10^6 cells of P388 leukaemia per mouse into C2DF1 hybrid mice (CD2F1/CrlBR, Charles River, St Aubin-les-Elbeuf, France) intravenously on day zero. After randomizing the animals in the treatment and control cages, the compounds to be evaluated are administered in a single injection intraperitoneally the day after the tumour graft, on day 1. The animals are subsequently monitored every day, weighed twice weekly and any clinical reaction is recorded. The survival is the parameter for evaluation of the antitumour activity. The increase in survival is defined by the T/Csurvival ratio (%), corresponding to: (Median of survival of the treated group/Median of survival of the control group)×100. A T/Csurvival ratio is calculated for each dose administered and the greatest value obtained represents the maximum increase in survival achieved (maximum activity), which is defined by the optimum T/Csurvival ratio. The results are illustrated in Table II, in which the optimum T/Csurvival values appear. […] Specifically, according to the criteria of the NCI (National Cancer Institute), a T/Csurvival value is regarded as significant if it is at least greater than 120% (Semin. Oncol., 1981, 8, 349-361). The relative loss in body weight of the animals, associated with the optimum activity of the compounds, is much less than the toxicity threshold, according to the criteria of the NCI (Ann. Oncol., 1994, 5, 415-422).

[1] = Solubility in water of the hydrochloride; format: physicochemical; conditions: water-soluble hydrochloride
Description: The compounds of the present invention have a solubility in water which makes possible a form of administration by infusion, by injection or by the oral route. They are provided in the form of their water-soluble hydrochloride, the solubility values of which are collated in Table II.

[2] = test system: cells of the A549 human line (non-small-cell lung cancer); experiment: Cytotoxicity test: inhibition of growth of A549 cells (ATP-Lite luminescence); format: cell-based; conditions: 48 hours incubation
Experimental: The test used is the inhibition of growth of cells of the A549 human line (non-small-cell lung cancer):
The A549 tumour cells are seeded in a 96-well plate in RPMI 1640 medium without phenol red (Seromed) to which 5% of foetal calf serum is added (100 μl/well, 125×10^4 cells/ml). After incubating at 37° C. for 24 hours in an incubator comprising 5% CO2, the medium is replaced with that comprising the test compound, after which the plates are incubated for an additional 48 hours. Cell survival is evaluated by measuring the luminescence after release of ATP into the medium using the cell lysis, luciferase and luciferin solutions present in the ATP-Lite-M™ kit as is recommended by the manufacturer (Packard, Rungis, France). Each experimental condition was tested at least three times as six identical copies. The results, expressed as IC50 (M), are collated in Table I and show the cytotoxicity of the compounds.

DNA in A549 cells = experiment: Comets test for detection of breakages of the DNA in cellulo; format: cell-based, human; conditions: 1 hour with 10 μM compound
Experimental: b) Test for Detection of Breakages of the DNA in Cellulo:
The comets test is used. The breakages of the DNA are detected in the A549 cells after incubating for 1 hour with 10 μM of each of the test compounds. […] For each compound, twenty-five cells are analysed and the mean Tail Moment (TM) is calculated using Komet software (Kinetic Imaging, UK).

[3] = test system: MX-1 human mammary carcinoma; experiment: MX-1 experimental tumour model (tumour volume); format: in vivo, mouse
Description: The model used is a human mammary carcinoma (Developmental Therapeutics Program, Division of Cancer Treatment, National Cancer Institute, In vivo Cancer Models 1976-1982. NIH Publication No. 84 2635, Washington D.C.: United States Government Printing Office, 1984), which is maintained by successive subcutaneous transplantations in Swiss Nude mice (Ico: Swiss-nu/nu, Iffa Credo, L'Arbresle, France), as was described above (Classic in vivo cancer models: Three examples of mouse models used in experimental therapeutics. Current Protocols in Pharmacology Unit 5.24: 5.24.1-5.24.16, 2001).
The experiment is carried out according to a protocol already described above (Cancer Chemother. Pharmacol., 1998, 41, 437-447). […] After randomizing the animals in their treatment and control cages, the compounds to be evaluated are administered intraperitoneally on day 7, 9, 11, 14, 16 and 18 after the grafting of the tumour. The animals are subsequently monitored every day, weighed twice weekly and any clinical reaction is recorded. The size of the tumour is measured three times weekly during the experiment. The tumour volume is calculated and the activity of the compounds on the size of the tumour is defined by the T/Cvolume ratio (%), corresponding to (Median tumour volume of the treated group/Median tumour volume of the control group)×100.

B16 melanoma = experiment: B16 experimental tumour model (tumour volume); format: in vivo, mouse; conditions: C57BL/6 mice, s.c. B16, intraperitoneal on days 3, 5, 7 and 10; dose (mg/kg) in brackets
Experimental: as §1, with “the B16 melanoma” for “P388 murine leukaemia”, “subcutaneous” for “intraperitoneal”, “C57BL/6” for “DBA/2”, “(C57BL/6 NCrlBR,” for “(DBA/2JIco,”, “River, St Aubin-les-Elbeuf, France),” for “River),”, “above” for “in prior art documents”
The experiment is carried out according to a protocol already described above. B16 tumour tissue is ground and homogenized in a 0.9% sterile sodium chloride solution using a Dounce homogenizer and then C57BLJ6 mice are inoculated subcutaneously into the flank with 0.5 ml of this 1 g/ml preparation on day zero. After randomizing the animals in the treatment and control cages, the compounds to be evaluated are administered intraperitoneally on days 3, 5, 7 and 10 after the grafting of the tumour. The animals are subsequently monitored every day, weighed twice weekly and any clinical reaction is recorded. The size of the tumour is measured three times weekly during the experiment. The tumour volume is calculated and the activity of the compounds on the size of the tumour is defined by the T/Cvolume ratio (%), corresponding to (Median tumour volume of the treated group/Median tumour volume of the control group)×100. […]

melting point [°C] | Compound | P388 Model Optimum T/Csurvival (%) (P388 murine leukaemia) | IC50 ([2]; Homo sapiens) [nM] | TM (mean Tail Moment with respect to the TM of etoposide, taken to be unity) (DNA in A549 cells) | other results
269 to 270 | COc1cc(C2c3cc4c(cc3C(NC(=O)CN3CCCCC3)C3COC(=O)C23)OCO4)cc(OC)c1O (stereo not drawn) (as salt: hydrochloride) |  |  |  | 
236 | COc1cc(C2c3cc4c(cc3C(NC(=O)CNCCN)C3COC(=O)C23)OCO4)cc(OC)c1O (stereo not drawn) (as salt: hydrochloride) |  |  |  | 
219 | COc1cc(C2c3cc4c(cc3C(NC(=O)CNCCCN)C3COC(=O)C23)OCO4)cc(OC)c1O (stereo not drawn) (as salt: hydrochloride) |  |  |  | 
209 | COc1cc(C2c3cc4c(cc3C(NC(=O)CNCCCNCCCCNCCCN)C3COC(=O)C23)OCO4)cc(OC)c1OC (stereo not drawn) (as salt: hydrochloride) |  |  |  | 
199 | COc1cc(C2c3cc4c(cc3C(NC(=O)CNCCCCNCCCN)C3COC(=O)C23)OCO4)cc(OC)c1O (stereo not drawn) (as salt: hydrochloride) |  |  |  | 
255 | COc1cc(C2c3cc4c(cc3C(NC(=O)CNCCCNCCCCN)C3COC(=O)C23)OCO4)cc(OC)c1O (stereo not drawn) (as salt: hydrochloride) [Example 31, 2-[3-(4-aminobutylamino)propylamino]-N-[9-(4-hydroxy-3,5-dimethoxyphenyl)-8-oxo-5,5a,6,8,8a,9-hexahydrofuro[3′,4′:6,7]naphtho[2,3-d][1,3]dioxol-5-yl]acetamide] |  |  |  | 
 | COc1cc(C2c3cc4c(cc3C(NC(=O)CNCCN(C)C)C3COC(=O)C23)OCO4)cc(OC)c1O (stereo not drawn) [Example 9, 2-(2-dimethylaminoethylamino)-N-[9-(4-hydroxy-3,5-dimethoxyphenyl)-8-oxo-5,5a,6,8,8a,9-hexahydrofuro[3′,4′:6,7]naphtho[2,3-d][1,3]dioxol-5-yl]acetamide] | 157 [10] % | 6000 | 2.81 | solubility [1]: 100 mg/mL (≈ 190 mM)
 | COc1cc(C2c3cc4c(cc3C(NC(=O)CN(C)C)C3COC(=O)C23)OCO4)cc(OC)c1O (stereo not drawn) [Example 12, 2-dlmethylamino-N-[9-(4-hydroxy-3,5-dimethoxyphenyl)-8-oxo-5,5a,6,8,8a,9-hexahydrofuro[3′,4′:6,7]naphtho[2,3-d][1,3]dioxol-5-yl]acetamide] | 157 [2.5] % |  | 2.32 | Solubility in water [1]: 16 mg/mL (≈ 33 mM); IC50 [2]: 200 nM
 | COc1cc(C2c3cc4c(cc3C(NC(=O)CN)C3COC(=O)C23)OCO4)cc(OC)c1O (stereo not drawn) [Example 22, 2-amino-N-[9-(4-hydroxy-3,5-dimethoxyphenyl)-8-oxo-5,5a,6,8,8a,9-hexahydrofuro[3′,4′:6,7]naphtho[2,3-d][1,3]dioxol-5-yl]acetamide] |  | 1000 | 3.89 | 
 | COc1cc(C2c3cc4c(cc3C(NC(=O)CNCCCCN)C3COC(=O)C23)OCO4)cc(OC)c1O (stereo not drawn) [Example 25, 2-(4-aminobutylamino)-N-[9-(4-hydroxy-3,5-dimethoxyphenyl)-8-oxo-5,5a,6,8,8a,9-hexahydrofuro[3′,4′:6,7]naphtho[2,3-d][1,3]dioxol-5-yl]acetamide] | 129 [10] % | 80 | 1.09 | MX-1 Model Optimum T/Cvolume (%) ([3]; Swiss Nude mice, s.c. MX-1, intraperitoneal on day 7, 9, 11, 14, 16 and 18, dose (mg/kg) in brackets): 51% and 51 [10] %; solubility [1]: 100 mg/mL (≈ 190 mM); B16 Model Optimum T/Cvolume (%) (B16 melanoma): 25% and 25 [20] %
 | COc1cc(C2c3cc4c(cc3C(NC(=O)CNCCCNCCCCNCCCN)C3COC(=O)C23)OCO4)cc(OC)c1O (stereo not drawn) [Example 27, 2-{3-[4-(3-aminopropylamino)butylamino]propylamino}-N-[9-(4-hydroxy-3,5-dimethoxyphenyl)-8-oxo-5,5a,6,8,8a,9-hexahydrofuro[3′,4′:6,7]naphtho[2,3-d][1,3]dioxol-5-yl]acetamide] | 129 [7.5] % | 200 | 1.22 | effect on the tumour (in words) ([3]; MX-1, treatment of 2.5 mg/kg): complete eradication of the tumour; solubility [1]: 50 mg/mL (≈ 77.9 mM)
 | CCC1=C[C@@H]2CN(C1)Cc1c([nH]c3ccccc13)[C@@](C(=O)OC)(c1cc3c(cc1OC)N(C)[C@H]1[C@@](O)(C(=O)OC)[C@H](OC(C)=O)[C@]4(CC)C=CCN5CC[C@]31[C@@H]54)C2 [Vinorelbine, reference compound] |  | 3.7 | 0 | 

Compound | melting point [°C] | P388 Model Optimum T/Csurvival (%) (P388 murine leukaemia) | IC50 ([2]; Homo sapiens) [nM] | TM (mean Tail Moment with respect to the TM of etoposide, taken to be unity) (DNA in A549 cells) | other results
COc1cc(C2c3cc4c(cc3C(NC(=O)CN)C3COC(=O)C23)OCO4)cc(OC)c1O (stereo not drawn) (as salt: hydrochloride) [Example 22, 2-amino-N-[9-(4-hydroxy-3,5-dimethoxyphenyl)-8-oxo-5,5a,6,8,8a,9-hexahydrofuro[3′,4′:6,7]naphtho[2,3-d][1,3]dioxol-5-yl]acetamide] | 236 |  |  |  | 
